According to PMC12754617, “Ruthenium-enhanced curcumin derivatives target tumor growth and cancer-related inflammation in head and neck cancer models” (Frontiers in Oncology, 2025):

Key:
[1] = target: T1, NF-κB p65 (Homo sapiens, UniProt Q04206); assay: Intracellular p65-NF-κB ELISA (DNA-binding activity); type: cell-based
T1 construct: endogenous in cells; host or cells: THP1-Blue NF-κB cells
Excerpt: To determine NF-κB p65 transcription factor levels by enzyme-linked immunosorbent assay (ELISA), an assay kit was used (Abcam, ab133112, Cambridge, UK). […] The supernatants were collected and used for the determination of intracellular p65-NF-κB by ELISA.
In this assay, a specific double-stranded DNA (dsDNA) sequence containing the NF-κB p65 response element is immobilized onto the wells of a 96-well plate. NF-κB p65 present in the sample binds specifically to these response elements. Bound p65 is subsequently detected using a primary antibody specific for NF-κB p65, followed by a horseradish peroxidase (HRP)-conjugated secondary antibody. The relevant background values were subtracted from the measured values. Absorbance was measured at 450 nm using an […] 200 PRO microplate reader (Tecan, Switzerland).

[2] = tested on: CAL 27; assay: Colony formation assay; type: cell-based, human; conditions: CAL 27, 24 h treatment at IC50
Method: (§1) Cells were seeded in six-well plates at a density of 100,000 cells per well (10,000 cells/200 μL) and grown for 24 h. […] Subsequently, cells were reseeded in new six-well plates at a density of 500 cells per well and grown for approximately 2 weeks. The cell culture medium was replaced every 2–3 days. When visible colonies appeared in the six-well plates, the culture was terminated, and the cells were washed twice with ice-cold PBS. The cells were then fixed with ice-cold methanol for 10 min and stained with 0.5% crystal violet solution for 30 min at room temperature. Experiments were performed in four independent replicates. The results were analyzed using the ImageJ plugin ColonyArea, which is optimized for standard analysis of colony formation assays. The plugin processes each well individually and determines not the number of colonies, but the area of the well covered by cells, also considering staining intensity.

[3] = tested on: TR146; assay: Colony formation assay; type: cell-based, human; conditions: TR146, 24 h treatment at IC50
Method: as §1

[4] = tested on: Detroit 562; assay: Colony formation assay; type: cell-based, human; conditions: Detroit 562, 24 h treatment at IC50
Method: as §1

[5] = tested on: FaDu; assay: Colony formation assay; type: cell-based, human; conditions: 24 h treatment at IC50
Method: as §1

[6] = tested on: HGF; assay: Colony formation assay; type: cell-based, human; conditions: 24 h treatment at IC50
Method: as §1

[7] = target: T2, IKKβ (Homo sapiens, UniProt O14920); assay: IKKβ inhibition assay (IKKβ Kinase Assay Kit); type: biochemical
T2 construct: purchased BPS Bioscience
T2 sequence (O14920 1-756): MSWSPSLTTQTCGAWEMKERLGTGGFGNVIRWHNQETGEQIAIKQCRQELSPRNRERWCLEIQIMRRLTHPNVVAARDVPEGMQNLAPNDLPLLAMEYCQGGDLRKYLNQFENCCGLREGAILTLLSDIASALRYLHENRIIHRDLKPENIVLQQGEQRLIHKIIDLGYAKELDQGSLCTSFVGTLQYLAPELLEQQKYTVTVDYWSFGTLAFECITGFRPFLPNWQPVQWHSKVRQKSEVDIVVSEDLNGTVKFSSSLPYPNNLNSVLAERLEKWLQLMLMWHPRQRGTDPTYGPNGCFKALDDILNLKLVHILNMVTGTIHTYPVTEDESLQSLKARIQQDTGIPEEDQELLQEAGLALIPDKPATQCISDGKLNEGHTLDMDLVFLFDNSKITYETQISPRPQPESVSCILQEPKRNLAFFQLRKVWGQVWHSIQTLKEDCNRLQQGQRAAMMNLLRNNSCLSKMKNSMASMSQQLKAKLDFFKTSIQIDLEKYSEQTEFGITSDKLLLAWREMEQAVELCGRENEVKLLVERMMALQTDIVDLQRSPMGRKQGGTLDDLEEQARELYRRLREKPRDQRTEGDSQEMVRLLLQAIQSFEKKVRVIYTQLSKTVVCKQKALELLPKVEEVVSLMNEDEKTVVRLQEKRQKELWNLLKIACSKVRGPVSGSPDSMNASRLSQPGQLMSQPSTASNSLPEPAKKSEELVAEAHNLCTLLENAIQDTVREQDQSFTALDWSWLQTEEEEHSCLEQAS
Method: IκB kinase beta (IKKβ) inhibition was determined using the IKKβ Kinase Assay Kit (BPS Bioscience, San Diego, California, USA). […] Kinase-Glo® MAX (Promega, #V6071, Madison, Wisconsin, USA) was used as the detection reagent, with an incubation time of 15 min. Blank values were subtracted from all measurements. Luminescence was measured with an integration time of 1 s using a Spark Microplate Reader (Tecan, Switzerland).

[8] = target: T3, IL-6 (Homo sapiens, UniProt P05231); assay: Sandwich ELISA assay IL-6; type: binding; conditions: 15 μM, 500 pg/mL IL-6
T3 construct: purchased PeproTech, Thermo Fisher Scientific
Method: Human ELISA kits for IL-6, IL-6R, and IL-8 (Sigma-Aldrich, Merck, Germany) were used to quantify cytokine levels after treatment with complex 3 or 4. Briefly, 96-well plates precoated with specific antibodies were used to capture IL-6, IL-6R, and IL-8 from samples. […] Each sample was supplemented with 500 pg/mL of IL-6/IL-6R/IL-8. Positive control wells contained only the IL-6/IL-6R/IL-8 standard (PeproTech, Thermo Fisher Scientific, Waltham, Massachusetts, USA). […] After incubation, wells were washed, and biotinylated antihuman antibodies were added, followed by washing and addition of HRP-conjugated streptavidin. Finally, the TMB substrate was added to develop a color proportional to the cytokine concentration, and the reaction was stopped with the stop solution. Absorbance was measured at 450 nm using an […] 200 PRO microplate reader (TECAN, Switzerland).

T1 sequence (Q04206 whole entry): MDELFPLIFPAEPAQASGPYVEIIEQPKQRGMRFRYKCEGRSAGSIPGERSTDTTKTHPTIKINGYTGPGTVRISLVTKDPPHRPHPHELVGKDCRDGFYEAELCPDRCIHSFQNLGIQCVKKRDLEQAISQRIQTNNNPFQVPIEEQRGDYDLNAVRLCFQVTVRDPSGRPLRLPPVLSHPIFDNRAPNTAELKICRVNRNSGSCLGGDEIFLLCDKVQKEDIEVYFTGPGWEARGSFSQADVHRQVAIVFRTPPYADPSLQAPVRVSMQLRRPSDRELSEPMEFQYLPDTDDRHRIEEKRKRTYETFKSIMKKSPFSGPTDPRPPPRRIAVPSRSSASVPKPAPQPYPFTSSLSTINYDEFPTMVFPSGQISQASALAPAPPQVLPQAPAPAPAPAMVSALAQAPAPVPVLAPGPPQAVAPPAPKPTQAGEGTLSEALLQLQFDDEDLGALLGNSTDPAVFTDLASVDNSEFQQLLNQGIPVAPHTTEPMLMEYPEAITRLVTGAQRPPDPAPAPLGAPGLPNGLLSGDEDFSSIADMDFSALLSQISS
T3 sequence (P05231 30-212): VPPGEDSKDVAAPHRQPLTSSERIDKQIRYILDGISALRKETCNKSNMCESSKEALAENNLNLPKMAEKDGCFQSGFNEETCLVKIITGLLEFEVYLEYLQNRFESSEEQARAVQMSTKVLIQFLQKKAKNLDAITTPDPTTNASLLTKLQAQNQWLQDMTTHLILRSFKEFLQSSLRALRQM

Row | SMILES | Reduction of NF-κB (p65) levels ([1]; 1 μM, cellular extracts of THP1-Blue NF-κB cells, LPS) | NF-κB (p65) detected in cellular extracts ([1]; 8 μM) | Cloning efficiency (%) [2] | Cloning efficiency (%) [3] | Cloning efficiency (%) [4] | Cloning efficiency (%) [5] | Cloning efficiency (%) [6] | Reduction of IKKβ activity ([7]; 8 μM) | Decrease of IL-6 concentration [8] | Inhibition of IKKβ activity ([7]; 1 μM)
1 | Cc1ccc(C(C)C)cc1.Cc1ccc(C(C)C)cc1.O=C1C(=Cc2ccnc3ccccc23)COCC1=Cc1ccnc2ccccc12.[Cl][Ru][Cl].[Cl][Ru][Cl] [Complex 3] | approximately 70% | less than 5% | 39 ± 7% | 66 ± 19% | 57 ± 8% | 73 ± 15% | 95 ± 6% | about 40% |  | 
2 | Cc1ccc(C(C)C)cc1.Cc1ccc(C(C)C)cc1.O=C1C(=Cc2cccnc2)CCC1=Cc1cccnc1.[Cl][Ru][Cl].[Cl][Ru][Cl] [Complex 4] |  |  |  |  |  |  |  |  | approximately 30% | approximately 30%
